Assay: Biodistribution studies in ICR white mice: percent of injected dose of Tc-99m complex in brain tissue
Format: in vivo
Conditions: for % of Dose of Tc99m Complex in Brain, 5 min / % of Dose of Tc99m Complex in Brain, 15 min / % of Dose of Tc99m Complex in Brain, 10 min: ICR white mice, i.v. (tail), 0.5 to 2 microcuries, saline
Protocol: Biodistribution studies have been conducted with several complexes according to the present invention, in ICR white mice. A saline solution containing 0.5 to 2 microcuries of the Tc-99m complex was injected intravenously (tail), and the mice were sacrificed after 5, 10 or 15 minutes. The percent of the injected dose which was present in brain tissue was measured. […] On the other hand, the data reveal that the compounds containing the alkyl-amino group according to the present invention are retained in the brain for much longer times. For example, after 15 minutes, the concentration of compound 3 is 15 times that of compound 1.

CC(C)(S)CNC(C)(C)CN(CCN1CCCCC1)CC(C)(C)S [Compound 9]
% of Dose of Tc99m Complex in Brain, 5 min: 2.19 % of Dose
% of Dose of Tc99m Complex in Brain, 15 min: 1.01 % of Dose

CN(C)CCN(CCNCC(C)(C)S)CC(C)(C)S [Compound 2]
% of Dose of Tc99m Complex in Brain, 5 min: 0.89 % of Dose
% of Dose of Tc99m Complex in Brain, 10 min: 0.30 % of Dose
% of Dose of Tc99m Complex in Brain, 15 min: 0.42 % of Dose

CC(C)(S)CNCCNCC(C)(C)S [Compound 1, reference compound]
% of Dose of Tc99m Complex in Brain, 5 min: 1.02 % of Dose
% of Dose of Tc99m Complex in Brain, 10 min: 0.30 % of Dose
% of Dose of Tc99m Complex in Brain, 15 min: 0.03 % of Dose

CC(C)NCCN(CCNCC(C)(C)S)CC(C)(C)S [Compound 3]
% of Dose of Tc99m Complex in Brain, 5 min: 0.64 % of Dose
% of Dose of Tc99m Complex in Brain, 10 min: 0.49 % of Dose
% of Dose of Tc99m Complex in Brain, 15 min: 0.49 % of Dose
concentration in brain relative to that of compound 1 (after 15 minutes, mice, i.v., relative to compound 1): 15 times

Source: patent publication US4638051A, “Brain imaging radiopharmaceuticals” (The Johns Hopkins University, priority 1985, dated 1987)
